Reference: patent US7354915B2 (Wyeth, priority 2003, dated 2008)
“And” between values parts separate entries of the source, which are not always exact repeats. Identical values can stand only once.

Key:
[1] = system: rat uterine decidualization; assay: Rat decidualization assay; assay type: in vivo; conditions: ovariectomized female Sprague-Dawley rats; for Estimated average EC50 (decidual response) / EC50 for uterine weight (decidual response): s.c.; for Estimated average EC50 (decidual response): average of dose-response curves; for EC50 for uterine weight (decidual response): once daily for seven days, individual studies (Exp)
Method: B. Rat decidualization assay • 1. […] Methods: • a. […] The animals were treated once daily for seven days. […] Dosing • Doses were prepared based upon mg/kg mean group body weight. In all studies, a control group receiving vehicle was included. […] The contralateral horn was not scratched and served as an unstimulated control. Approximately 24 hours following the final treatment, rats were sacrificed by CO2 asphyxiation and body weight measured. Uteri were removed and trimmed of fat. Decidualized (D-horn) and control (C-horn) uterine horns were weighed separately. • 3.
Body weight: Mean total animal body weight (default-kg)
Decidual response: [(D−C)/C]×100%

[2] = system: T47D cells; assay: T47D cell proliferation assay (BrdU incorporation); assay type: cell-based
Method: A. T47D cell proliferation assay • 1. Objective: • Determination of progestational and antiprogestational potency was performed by using a cell proliferation assay in T47D cells. A compound's effect on DAN synthesis in T47D cells was measured. • 2. Methods: • a. Reagents: • Growth medium: DMEM:F12 (1:1) (GIBCO, BRL) supplemented with 10% (v/v) fetal bovine serum (not heat-inactivated), 100 U/mL penicillin, […] streptomycin, and 2 mM GlutaMax (GIBCO, BRL). • Treatment medium: Minimum Essential Medium (MEM) (#51200-038GIBCO, BRL) phenol red-free supplemented with 0.5% charcoal stripped fetal bovine serum, 100 U/mL penicillin, […] streptomycin, and 2 mM GlutaMax (GIBCO, BRL). • b. Cell Culture: • Stock T47 D cells were maintained in growth medium. For BrdU incorporation assay, cells were plated in 96-well plates (Falcon, Becton Dickinson Labware) at 10,000 cells/well in growth medium. […] Cell Proliferation Assay: • At the end of BrdU labeling, the medium was removed and BrdU incorporation was measured using a cell proliferation ELISA kit (#RPN 250, Amersham Life Science) according to manufacturer's instructions. […] Then 25 μL of 1 M sulfuric acid was added to each well to stop color reaction and optical density read in a plate reader at 450 nm within 5 minutes. • 3. […] EC50 or IC50 values were calculated from the retransformed values. […]

SMILES	Estimated average EC50 (decidual response) [1]	EC50 for uterine weight (decidual response) [1]	also measured
C#C[C@]1(O)CC[C@H]2[C@@H]3CCC4=CC(=O)CC[C@@H]4[C@H]3C(=C)C[C@@]21CC [3-Ketodesogestrel]	0.10 mg/kg, s.c.	0.10 mg/kg, s.c. and 0.06 mg/kg, s.c. and 0.11 mg/kg, s.c.	
C#C[C@]1(O)CC[C@H]2[C@@H]3CCC4=CC(=O)CC[C@@H]4[C@H]3CC[C@@]21CC [Levonorgestrel]	0.10 mg/kg, s.c.	0.08 mg/kg, s.c. and 0.12 mg/kg, s.c. and 0.09 mg/kg, s.c. (2×)	
CC(=O)O[C@]1(C(C)=O)CC[C@H]2[C@@H]3C[C@H](C)C4=CC(=O)CC[C@]4(C)[C@H]3CC[C@@]21C [MPA, medroxyprogesterone acetate]		0.42 mg/kg, s.c. and 0.39 mg/kg, s.c. (2×)	
CC(=O)[C@H]1CC[C@H]2[C@@H]3CCC4=CC(=O)CC[C@]4(C)[C@H]3CC[C@]12C [Progesterone]		5.50 mg/kg, s.c.	
CC#C[C@]1(O)CC[C@H]2[C@@H]3CCC4=CC(=O)CCC4=C3[C@@H](c3ccc(N(C)C)cc3)C[C@@]21C [RU486]			IC50 ([2]; read-out: IC50 (half-maximal decrease in trimegestone induced BrdU incorporation), antagonist mode in the presence of 0.03 nM trimegestone, individual studies (Exp)): 0.016 nM and 0.018 nM; IC50 for uterine weight (decrease in EC50 progesterone induced decidual response) ([1]; p.o., with progesterone 5.6 mg/kg, individual studies (Exp.)): 0.21 mg/kg, p.o. and 0.14 mg/kg, p.o.
C[C@H](O)C(=O)[C@@]1(C)CC[C@H]2[C@@H]3CCC4=CC(=O)CCC4=C3CC[C@@]21C [Trimegestone]			EC50 ([2]; agonist mode, individual studies (Exp), read-out: EC50 (half-maximal increase in BrdU incorporation)): 0.017 nM and 0.014 nM and 0.019 nM
